According to patent publication US20050282743A1, “Molecular interactions in cells” (Arbor Vita Corporation, priority 2001, published 2005):
Ends that are not written are not given here. Peptide text beside a SMILES is read from it. * marks the point of attachment. Biotin = O=C1N[C@H]2[C@H](CS[C@H]2CCCCC(=O)*)N1

Columns and labels:
[1] = biological target: T1, PDZ protein (GST-PDZ fusion) (Homo sapiens, UniProt Q07157); assay: G' assay (10 uM PL peptide), results of TABLE 7 and TABLE 12; format: binding
T1 construct: made in house; host or cells: E. coli (DH5alpha, BL21 or JM109)
In short: (§1)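 Biotin-PL peptide (N-term label), 10 uM vs GST-PDZ; protein 5 ug/ml by default. A450 nm binned: 1 = 0-1, 2 = 1-2, 3 = 2-3, 4 = 3-4, 5 = >4 on >2 repeats, 0 = no binding.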

[2] = biological target: T2, PDZ protein (GST-PDZ fusion) (Homo sapiens, UniProt Q9Y3R0); assay: as above; format: binding
T2 construct: made in house; host or cells: E. coli (DH5alpha, BL21 or JM109)
T2 sequence (Q9Y3R0 1-1128): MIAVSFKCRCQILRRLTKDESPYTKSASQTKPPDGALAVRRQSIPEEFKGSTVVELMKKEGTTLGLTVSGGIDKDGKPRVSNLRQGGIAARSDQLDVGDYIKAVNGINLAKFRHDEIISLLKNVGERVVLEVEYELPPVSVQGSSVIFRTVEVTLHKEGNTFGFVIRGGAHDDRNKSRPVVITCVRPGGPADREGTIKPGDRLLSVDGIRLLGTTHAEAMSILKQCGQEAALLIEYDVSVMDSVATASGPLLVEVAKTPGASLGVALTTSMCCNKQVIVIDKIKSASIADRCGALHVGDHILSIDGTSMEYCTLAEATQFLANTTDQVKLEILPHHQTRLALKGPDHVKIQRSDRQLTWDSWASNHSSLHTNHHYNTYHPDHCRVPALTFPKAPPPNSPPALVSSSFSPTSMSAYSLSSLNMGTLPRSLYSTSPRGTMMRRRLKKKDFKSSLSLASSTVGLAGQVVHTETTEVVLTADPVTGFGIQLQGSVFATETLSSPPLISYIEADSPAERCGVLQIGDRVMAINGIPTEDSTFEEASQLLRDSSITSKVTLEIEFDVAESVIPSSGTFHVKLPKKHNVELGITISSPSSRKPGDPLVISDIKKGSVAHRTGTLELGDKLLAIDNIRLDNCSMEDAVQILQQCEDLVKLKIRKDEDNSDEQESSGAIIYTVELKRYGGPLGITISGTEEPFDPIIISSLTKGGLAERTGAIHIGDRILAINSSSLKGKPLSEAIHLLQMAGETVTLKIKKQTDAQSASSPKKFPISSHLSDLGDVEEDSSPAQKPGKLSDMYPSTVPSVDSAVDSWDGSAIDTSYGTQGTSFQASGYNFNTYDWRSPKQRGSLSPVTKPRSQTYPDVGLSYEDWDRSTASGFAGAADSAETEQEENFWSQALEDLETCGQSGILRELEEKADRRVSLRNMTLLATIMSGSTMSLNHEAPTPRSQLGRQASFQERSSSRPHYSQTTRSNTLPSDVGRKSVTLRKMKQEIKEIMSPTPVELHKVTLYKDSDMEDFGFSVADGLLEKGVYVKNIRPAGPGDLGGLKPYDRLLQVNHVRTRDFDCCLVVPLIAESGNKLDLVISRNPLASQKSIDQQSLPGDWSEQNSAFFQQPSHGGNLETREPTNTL
In short: as §1

T1 sequence (Q07157 whole entry, the tested form may be a part): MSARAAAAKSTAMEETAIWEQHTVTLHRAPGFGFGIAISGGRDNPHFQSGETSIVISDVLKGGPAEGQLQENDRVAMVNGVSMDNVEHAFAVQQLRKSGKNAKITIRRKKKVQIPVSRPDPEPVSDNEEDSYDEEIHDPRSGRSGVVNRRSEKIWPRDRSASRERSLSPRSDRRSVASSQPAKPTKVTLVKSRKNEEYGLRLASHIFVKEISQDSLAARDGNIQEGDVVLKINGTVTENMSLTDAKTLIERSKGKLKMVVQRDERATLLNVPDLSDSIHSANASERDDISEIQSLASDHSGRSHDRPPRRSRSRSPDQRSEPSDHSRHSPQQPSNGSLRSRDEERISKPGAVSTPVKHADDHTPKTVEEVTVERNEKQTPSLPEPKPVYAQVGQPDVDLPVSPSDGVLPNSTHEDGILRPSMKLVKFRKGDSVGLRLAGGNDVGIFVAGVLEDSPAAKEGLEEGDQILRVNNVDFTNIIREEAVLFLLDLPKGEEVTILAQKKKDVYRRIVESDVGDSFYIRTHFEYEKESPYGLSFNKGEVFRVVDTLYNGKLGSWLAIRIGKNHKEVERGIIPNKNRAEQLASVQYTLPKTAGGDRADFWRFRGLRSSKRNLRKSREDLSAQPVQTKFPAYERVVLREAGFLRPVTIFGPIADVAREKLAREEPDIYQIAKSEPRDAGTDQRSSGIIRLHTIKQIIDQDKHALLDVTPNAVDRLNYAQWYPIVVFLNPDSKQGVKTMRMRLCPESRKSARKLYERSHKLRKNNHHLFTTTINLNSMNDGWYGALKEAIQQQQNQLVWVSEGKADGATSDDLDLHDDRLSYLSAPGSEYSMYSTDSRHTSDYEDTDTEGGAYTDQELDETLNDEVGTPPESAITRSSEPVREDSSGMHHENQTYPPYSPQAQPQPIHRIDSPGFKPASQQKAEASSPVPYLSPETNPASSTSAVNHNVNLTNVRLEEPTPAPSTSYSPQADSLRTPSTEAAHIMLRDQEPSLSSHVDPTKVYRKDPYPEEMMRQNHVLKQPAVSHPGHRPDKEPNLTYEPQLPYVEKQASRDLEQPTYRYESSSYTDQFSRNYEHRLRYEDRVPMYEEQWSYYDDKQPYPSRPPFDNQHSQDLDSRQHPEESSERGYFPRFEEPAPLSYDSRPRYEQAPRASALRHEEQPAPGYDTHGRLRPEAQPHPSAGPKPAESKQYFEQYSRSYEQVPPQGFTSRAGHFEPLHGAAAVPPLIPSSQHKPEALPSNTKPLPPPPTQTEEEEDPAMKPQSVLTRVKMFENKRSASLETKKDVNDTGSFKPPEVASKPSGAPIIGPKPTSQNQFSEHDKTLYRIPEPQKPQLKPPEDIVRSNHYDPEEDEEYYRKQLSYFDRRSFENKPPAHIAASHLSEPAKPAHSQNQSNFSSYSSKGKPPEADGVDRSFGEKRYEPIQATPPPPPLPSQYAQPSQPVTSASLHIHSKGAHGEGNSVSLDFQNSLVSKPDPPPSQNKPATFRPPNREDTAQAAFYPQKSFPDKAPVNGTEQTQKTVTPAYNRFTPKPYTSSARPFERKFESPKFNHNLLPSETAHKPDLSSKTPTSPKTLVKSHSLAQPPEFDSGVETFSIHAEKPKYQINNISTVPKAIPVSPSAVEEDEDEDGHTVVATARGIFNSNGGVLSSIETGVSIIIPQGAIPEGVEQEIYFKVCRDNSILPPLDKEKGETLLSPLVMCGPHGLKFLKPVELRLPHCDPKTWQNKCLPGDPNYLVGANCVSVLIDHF

CC[C@H](C)[C@H](NC(=O)[C@H](Cc1ccc(O)cc1)NC(=O)[C@H](CC(C)C)NC(=O)[C@H](CCC(N)=O)NC(=O)[C@H](Cc1c[nH]cn1)NC(=O)[C@H](CO)NC(=O)[C@H](C)NC(=O)[C@H](CC(C)C)NC(=O)[C@@H](NC(=O)[C@H](CC(=O)O)NC(=O)[C@H](CCSC)NC(=O)[C@H](Cc1ccccc1)NC(=O)[C@@H]1CCCN1C(=O)[C@H](CCCNC(=N)N)NC(=O)[C@@H](NC(=O)[C@H](CC(C)C)NC(=O)[C@H](CC(N)=O)NC(=O)[C@H](CC(=O)O)NC(=O)[C@@H](NC(=O)[C@H](CO)NC(=O)CCCC[C@@H]1SC[C@@H]2NC(=O)N[C@@H]21)[C@@H](C)O)C(C)C)[C@@H](C)O)C(=O)O [presenilin-2] (Biotin-STDNLVRPFMDTLASHQLYI-OH; C-terminus assumed)
Classification ([1]; PDZ ZO-1, PDZ Domain 1): 1 (A450 nm 0-1)

CC[C@H](C)[C@H](NC(=O)[C@H](CC(=O)O)NC(=O)[C@H](CCC(=O)O)NC(=O)[C@H](CCCNC(=N)N)NC(=O)[C@@H](NC(=O)CCCC[C@@H]1SC[C@@H]2NC(=O)N[C@@H]21)[C@@H](C)O)C(=O)N[C@@H](Cc1ccc(O)cc1)C(=O)N[C@H](C(=O)N[C@@H](CC(N)=O)C(=O)N[C@@H](Cc1ccc(O)cc1)C(=O)N1CCC[C@H]1C(=O)N[C@H](C(=O)N[C@@H](Cc1ccccc1)C(=O)N[C@@H](CO)C(=O)N[C@@H](CCCNC(=N)N)C(=O)N[C@@H](CCCNC(=N)N)C(=O)N1CCC[C@H]1C(=O)N[C@@H](CCCCN)C(=O)N[C@H](C(=O)N[C@@H](CCCNC(=N)N)C(=O)N[C@H](C(=O)O)C(C)C)[C@@H](C)O)[C@@H](C)O)C(C)C [DNAM-1] (Biotin-TREDIYVNYPTFSRRPKTRV-OH; C-terminus assumed)
Classification ([1]; PDZ ZO-1, PDZ Domain 1): 2 (A450 nm 1-2)

CC(C)C[C@H](NC(=O)CNC(=O)[C@@H](NC(=O)[C@H](CO)NC(=O)[C@H](CC(N)=O)NC(=O)[C@H](Cc1ccccc1)NC(=O)CNC(=O)[C@H](C)NC(=O)[C@H](C)NC(=O)[C@H](Cc1ccccc1)NC(=O)[C@@H](NC(=O)CCCC[C@@H]1SC[C@@H]2NC(=O)N[C@@H]21)[C@@H](C)O)[C@@H](C)O)C(=O)N1CCC[C@H]1C(=O)N[C@@H](Cc1c[nH]cn1)C(=O)N[C@@H](CO)C(=O)N[C@H](C(=O)N[C@H](C(=O)N[C@@H](CCCNC(=N)N)C(=O)N[C@H](C(=O)O)C(C)C)[C@@H](C)O)[C@@H](C)O [Neuroligin] (Biotin-TFAAGFNSTGLPHSTTRV-OH; C-terminus assumed)
Classification ([1]; PDZ ZO-1, PDZ Domain 1): 1 (A450 nm 0-1)

A2AC_HUMAN (Modified) (Biotin-DFRPSFKHILFRRARRGFRQ; not fully specified)
Classification ([2]; PDZ GRIP1, PDZ Domain 5): 1 (A450 nm 0-1)

ELLQFCRTPNPALKNGQYWV (Biotin-ELLQFCRTPNPALKNGQYWV)
Classification ([2]; PDZ GRIP1, PDZ Domain 5): 1 (A450 nm 0-1)
Classification ([2]; PDZ GRIP1, PDZ Domain 7): 5 (A450 nm of 4 more than 2× repeated)
Classification ([1]; PDZ ZO-1, PDZ Domain 1): 5 (A450 nm of 4 more than 2× repeated)
Classification ([1]; PDZ ZO-1, PDZ Domain 2): 4 (A450 nm 3-4)

CC(C)C[C@H](NC(=O)[C@H](C)NC(=O)[C@@H](NC(=O)[C@@H](NC(=O)[C@H](Cc1c[nH]cn1)NC(=O)[C@H](CC(C)C)NC(=O)CNC(=O)[C@H](CCC(N)=O)NC(=O)CNC(=O)CNC(=O)[C@H](C)NC(=O)[C@H](C)NC(=O)[C@H](CCCNC(=N)N)NC(=O)[C@H](C)NC(=O)[C@H](CO)NC(=O)[C@H](CC(=O)O)NC(=O)[C@H](CC(=O)O)NC(=O)[C@H](Cc1c[nH]c2ccccc12)NC(=O)[C@H](C)NC(=O)CCCC[C@@H]1SC[C@@H]2NC(=O)N[C@@H]21)C(C)C)[C@@H](C)O)C(=O)O [LPAP] (Biotin-AWDDSARAAGGQGLHVTAL-OH; C-terminus assumed)
Classification ([2]; PDZ GRIP1, PDZ Domain 3): 1 (A450 nm 0-1)

CC(C)C[C@H](NC(=O)[C@H](Cc1c[nH]c2ccccc12)NC(=O)[C@H](Cc1c[nH]cn1)NC(=O)[C@H](CCCNC(=N)N)NC(=O)[C@H](CC(C)C)NC(=O)[C@@H](NC(=O)[C@H](Cc1ccccc1)NC(=O)[C@H](CCC(N)=O)NC(=O)[C@H](CCCNC(=N)N)NC(=O)[C@@H](NC(=O)[C@H](CCC(=O)O)NC(=O)CNC(=O)[C@H](CCCNC(=N)N)NC(=O)[C@H](CC(=O)O)NC(=O)[C@@H](NC(=O)[C@H](CC(C)C)NC(=O)[C@H](CCC(=O)O)NC(=O)[C@H](CCCNC(=N)N)NC(=O)CCCC[C@@H]1SC[C@@H]2NC(=O)N[C@@H]21)C(C)C)C(C)C)[C@@H](C)O)C(=O)N[C@@H](CCCCN)C(=O)N[C@H](C(=O)O)C(C)C [Dopamine transporter (Na+-dependent)] (Biotin-RELVDRGEVRQFTLRHWLKV-OH; C-terminus assumed)
Classification ([1]; PDZ ZO-1, PDZ Domain 2): 1 (A450 nm 0-1)

ALVLIAFCIIRRRPSAYQAL (Biotin-ALVLIAFCIIRRRPSAYQAL) [CD68]
Classification ([2]; PDZ GRIP1, PDZ Domain 6): 1 (A450 nm 0-1)

A2AA_HUMAN (modified) (Biotin-HDFRRAFKKILARGDRKRIV; not fully specified)
Classification ([1]; PDZ ZO-1, PDZ Domain 2): 4 (A450 nm 3-4)

CC[C@H](C)[C@H](NC(=O)[C@H](Cc1ccc(O)cc1)NC(=O)[C@@H](NC(=O)[C@@H]1CCCN1C(=O)[C@H](CCC(N)=O)NC(=O)[C@H](CCC(=O)O)NC(=O)[C@H](CCC(N)=O)NC(=O)[C@H](C)NC(=O)[C@@H](NC(=O)[C@H](CC(C)C)NC(=O)[C@H](CC(C)C)NC(=O)[C@H](CCCNC(=N)N)NC(=O)[C@H](Cc1ccc(O)cc1)NC(=O)[C@H](CCSC)NC(=O)[C@H](C)NC(=O)[C@H](C)NC(=O)[C@@H]1CCCN1C(=O)[C@H](CCSC)NC(=O)[C@@H](NC(=O)[C@H](CCCCN)NC(=O)CCCC[C@@H]1SC[C@@H]2NC(=O)N[C@@H]21)[C@@H](C)O)[C@@H](C)O)C(C)C)C(=O)O [MINT-1] (Biotin-KTMPAAMYRLLTAQEQPVYI-OH; C-terminus assumed)
Classification ([1]; PDZ ZO-1, PDZ Domain 1): 1 (A450 nm 0-1)

CC[C@H](C)[C@H](NC(=O)[C@H](CCC(N)=O)NC(=O)[C@@H](NC(=O)[C@H](Cc1c[nH]cn1)NC(=O)[C@H](CCC(N)=O)NC(=O)[C@H](CC(=O)O)NC(=O)[C@H](CCC(=O)O)NC(=O)[C@H](CC(=O)O)NC(=O)[C@H](Cc1ccccc1)NC(=O)[C@@H]1CCCN1C(=O)[C@H](CCC(=O)O)NC(=O)[C@H](CC(N)=O)NC(=O)[C@H](CCC(=O)O)NC(=O)[C@@H]1CCCN1C(=O)[C@H](CC(=O)O)NC(=O)[C@H](CO)NC(=O)[C@H](CC(=O)O)NC(=O)CCCC[C@@H]1SC[C@@H]2NC(=O)N[C@@H]21)[C@@H](C)O)C(=O)N[C@H](C(=O)N[C@@H](CCCCN)C(=O)N[C@H](C(=O)O)C(C)C)[C@@H](C)O [PTEN]
Classification ([2]; PDZ GRIP1, PDZ Domain 3): 1 (A450 nm 0-1)

GPVPGEPAKPKTSAHHATFV (Biotin-GPVPGEPAKPKTSAHHATFV)
Classification ([1]; PDZ ZO-1, PDZ Domain 1): 1 (A450 nm 0-1)

CC[C@H](C)[C@H](NC(=O)[C@H](C)NC(=O)[C@H](CC(C)C)NC(=O)[C@H](Cc1c[nH]c2ccccc12)NC(=O)[C@H](Cc1c[nH]cn1)NC(=O)[C@H](CCC(N)=O)NC(=O)[C@H](CC(C)C)NC(=O)[C@H](CCC(N)=O)NC(=O)[C@H](Cc1ccccc1)NC(=O)[C@H](CCC(N)=O)NC(=O)[C@H](CCCNC(=N)N)NC(=O)[C@@H](NC(=O)[C@H](CC(=O)O)NC(=O)[C@H](CCCNC(=N)N)NC(=O)[C@H](CCC(N)=O)NC(=O)[C@H](C)NC(=O)[C@@H](NC(=O)[C@H](CC(C)C)NC(=O)[C@H](Cc1c[nH]cn1)NC(=O)[C@H](Cc1c[nH]cn1)NC(=O)CCCC[C@@H]1SC[C@@H]2NC(=O)N[C@@H]21)C(C)C)[C@@H](C)CC)C(=O)O [noradrenaline transporter] (Biotin-HHLVAQRDIRQFQLQHWLAI-OH; C-terminus assumed)
Classification ([2]; PDZ GRIP1, PDZ Domain 6): 2 (A450 nm 1-2)
Classification ([1]; PDZ ZO-1, PDZ Domain 2): 2 (A450 nm 1-2)

LNETTETQRTLLNGDLQTSI (Biotin-LNETTETQRTLLNGDLQTSI) [SSTR2 (somatostatin recepor 2)]
Classification ([2]; PDZ GRIP1, PDZ Domain 7): 1 (A450 nm 0-1)

CC[C@H](C)[C@H](NC(=O)[C@H](CCCCN)NC(=O)[C@@H](NC(=O)[C@H](CO)NC(=O)[C@@H]1CCCN1C(=O)[C@H](Cc1ccccc1)NC(=O)[C@@H](NC(=O)[C@@H](NC(=O)[C@H](CCCNC(=N)N)NC(=O)[C@H](CCC(=O)O)NC(=O)[C@H](CC(C)C)NC(=O)[C@H](CC(C)C)NC(=O)[C@H](CC(C)C)NC(=O)[C@@H](NC(=O)CNC(=O)[C@@H](NC(=O)CCCC[C@@H]1SC[C@@H]2NC(=O)N[C@@H]21)C(C)C)[C@@H](C)O)C(C)C)[C@@H](C)CC)C(C)C)C(=O)N[C@@H](C)C(=O)N[C@H](C(=O)N[C@@H](CC(C)C)C(=O)N[C@H](C(=O)O)C(C)C)[C@@H](C)O [Adenovirus E4 Type9]
Classification ([1]; PDZ ZO-1, PDZ Domain 1, PL peptide 10 uM): 2 (A450 nm 1-2)
